Among the data in article PMC6934184, “Selective DNA-PKcs inhibition extends the therapeutic index of localized radiotherapy and chemotherapy” (The Journal of Clinical Investigation, 2019) are inhibition values, retold here.

The target of this test is T1, CSF1R (FMS) (Homo sapiens, UniProt P07333).
T1 construct: purchased Thermo Fisher Scientific (Life Technologies) SelectScreen
Kind of test: SelectScreen Z'LYTE. The format is biochemical. The method in brief:
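NU5455 was profiled across the SelectScreen Broad panel of kinase activity and binding assays. Z'LYTE reactions such as CSF1R ran at apparent Km ATP, while the Adapta CAMK1 assay used ATP listed as 10. Values are given as percent.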

T1 sequence (P07333 20-972): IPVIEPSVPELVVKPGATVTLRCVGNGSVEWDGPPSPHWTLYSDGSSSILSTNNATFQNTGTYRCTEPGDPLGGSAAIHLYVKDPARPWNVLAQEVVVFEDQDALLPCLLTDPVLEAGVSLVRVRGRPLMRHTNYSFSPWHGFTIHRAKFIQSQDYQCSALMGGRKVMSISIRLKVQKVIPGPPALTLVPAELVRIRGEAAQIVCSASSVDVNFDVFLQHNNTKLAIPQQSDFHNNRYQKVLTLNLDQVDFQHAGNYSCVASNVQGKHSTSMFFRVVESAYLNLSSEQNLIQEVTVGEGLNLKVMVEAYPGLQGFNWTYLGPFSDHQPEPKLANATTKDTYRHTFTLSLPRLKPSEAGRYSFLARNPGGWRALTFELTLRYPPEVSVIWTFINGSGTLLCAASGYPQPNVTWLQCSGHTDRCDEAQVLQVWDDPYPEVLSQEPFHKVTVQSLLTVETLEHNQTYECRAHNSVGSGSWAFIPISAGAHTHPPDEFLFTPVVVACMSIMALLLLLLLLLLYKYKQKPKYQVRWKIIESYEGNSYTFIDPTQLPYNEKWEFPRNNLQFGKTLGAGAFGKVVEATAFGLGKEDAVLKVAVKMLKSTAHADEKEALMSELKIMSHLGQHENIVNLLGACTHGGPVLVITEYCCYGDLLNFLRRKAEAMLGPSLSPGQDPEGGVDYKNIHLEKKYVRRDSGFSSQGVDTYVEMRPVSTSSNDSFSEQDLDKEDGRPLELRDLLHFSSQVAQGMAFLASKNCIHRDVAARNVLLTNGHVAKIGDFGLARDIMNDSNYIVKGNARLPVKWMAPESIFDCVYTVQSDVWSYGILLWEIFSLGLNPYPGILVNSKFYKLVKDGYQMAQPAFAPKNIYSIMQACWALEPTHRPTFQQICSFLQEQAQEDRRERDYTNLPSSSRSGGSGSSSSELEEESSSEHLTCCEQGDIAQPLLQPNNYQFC

The inhibition is the change of the read-out against control, counted positive when it falls. Read a low inhibition as a weak effect. On to `CN(C(=O)CN1CCOCC1)c1ccc2sc3c(-c4cccc5c(=O)cc(N6CC7CCC(C6)O7)oc45)cccc3c2c1` [NU5455], for which the inhibition at 1 µM was found to be 4.3%.
